Tested on: primary rat mixed cortical cells
Assay: In vitro myelination assay (MBP positive myelin strands, fold myelin pixels above background)
Format: cell-based
Settings: relative to baseline of no added compound; for fold induction at 1 µM / fold induction at 10 µM: Rattus norvegicus; for fold induction at 1 µM: read-out: Fold myelin pixels above background, 1.0 μM; for fold induction at 10 µM: read-out: Fold myelin pixels above background, 10.0 μM
Outline: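 P1 rat mixed cortical cultures (neurons, OPCs, oligodendrocytes, astrocytes, microglia) grown 14 days at 37 °C with compound, half-medium refreshed with compound on days 6 and 10. Fixed cells stained for MBP; MBP-positive myelin strand pixels per well quantified by automated imaging, reported as fold over no-compound baseline at 1.0 and 10.0 μM.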

SMILES	fold induction at 1 µM (1.0 μM compound)	fold induction at 10 µM (10.0 μM compound)	Fold myelin pixels above background, 1.0 μM (1.0 μM compound)	Fold myelin pixels above background, 10.0 μM (10.0 μM compound)
Cc1cc(Nc2ncn(-c3cc(F)cc(F)c3)n2)cc(N2CCN3C(=O)OCC3C2)c1 (stereo not drawn) [Compound 200, 7-[3-[[1-(3,5-difluorophenyl)-1,2,4-triazol-3-yl]amino]-5-methyl-phenyl]-5,6,8,8a-tetrahydro-1H-oxazolo[3,4-a]pyrazin-3-one]	100 to 1000	100 to 1000		
Cc1cc(Nc2ncn(-c3ccc(F)cc3)n2)cc(OC2CCN(C3COC3)CC2)c1 [Compound 201, 1-(4-fluorophenyl)-N-[3-methyl-5-[[1-(oxetan-3-yl)-4-piperidyl]oxy]phenyl]-1,2,4-triazol-3-amine]	1000 to 10000	≤ 1		
CC1CCN(c2cc(Nc3ncn(-c4ccc(F)c(F)c4)n3)cc(C3CC3)n2)CC1 [Compound 202, 2-cyclopropyl-N-[1-(3,4-difluorophenyl)-1,2,4-triazol-3-yl]-6-(4-methyl-1-piperidyl)pyridin-4-amine]	100 to 1000	10 to 100		
CN1CCN(c2cc(F)cc(Nc3ncn(-c4cccc(F)c4)n3)c2)CC1 [Compound 203, N-[3-fluoro-5-(4-methylpiperazin-1-yl)phenyl]-1-(3-fluorophenyl)-1,2,4-triazol-3-amine]	100 to 1000	≤ 1		
CCOc1nccc(-n2cnc(Nc3cc(C)cc(N4CCN(C5COC5)CC4)c3)n2)n1 [Compound 204, 1-(2-ethoxypyrimidin-4-yl)-N-[3-methyl-5-[4-(oxetan-3-yl)piperazin-1-yl]phenyl]-1,2,4-triazol-3-amine]	≤ 1	≤ 1		
Cc1cc(Nc2ncn(-c3cc(F)cc(OC(C)C)c3)n2)cc(N2CCN(C)CC2)c1 [Compound 205, 1-(3-fluoro-5-isopropoxy-phenyl)-N-[3-methyl-5-(4-methylpiperazin-1-yl)phenyl]-1,2,4-triazol-3-amine]	100 to 1000	≤ 1		
CCc1cc(F)cc(-n2cnc(Nc3cc(C)cc(N4CCN(C5COC5)CC4)c3)n2)c1 [Compound 206, 1-(3-ethyl-5-fluoro-phenyl)-N-[3-methyl-5-[4-(oxetan-3-yl)piperazin-1-yl]phenyl]-1,2,4-triazol-3-amine]	100 to 1000	100 to 1000		
Cc1cc(Nc2ncn(-c3ccccn3)n2)cc(C2CCCN(C3COC3)C2)c1 (stereo not drawn) [Compound 207, N-[3-methyl-5-[1-(oxetan-3-yl)-3-piperidyl]phenyl]-1-(2-pyridyl)-1,2,4-triazol-3-amine]	10 to 100	≤ 1		
Cc1cc(Nc2ncn(-c3cc(F)cc(F)c3)n2)cc([C@@H]2CCN(C3COC3)C[C@@H]2F)c1.Cc1cc(Nc2ncn(-c3cc(F)cc(F)c3)n2)cc([C@H]2CCN(C3COC3)C[C@H]2F)c1 [Compound 208, 1-(3,5-difluorophenyl)-N-[3-[(3S,4R)-3-fluoro-1-(oxetan-3-yl)-4-piperidyl]-5-methyl-phenyl]-1,2,4-triazol-3-amine; 1-(3,5-difluorophenyl)-N-[3-[(3R,4S)-3-fluoro-1-(oxetan-3-yl)-4-piperidyl]-5-methyl-phenyl]-1,2,4-triazol-3-amine]			+++ (>100 to 1000x)	− (≤1)
FC(F)c1cc(Nc2ncn(-c3cccnc3)n2)cc(N2CCN(C3COC3)CC2)c1 [Compound 209, N-[3-(difluoromethyl)-5-[4-(oxetan-3-yl)piperazin-1-yl]phenyl]-1-(3-pyridyl)-1,2,4-triazol-3-amine]	100 to 1000	100 to 1000		
COc1cc(OC)cc(-n2cnc(Nc3cc(C4CC4)nc(N4CCOCC4)c3)n2)c1 [Compound 210, 2-cyclopropyl-N-[1-(3,5-dimethoxyphenyl)-1,2,4-triazol-3-yl]-6-morpholino-pyridin-4-amine]	≤ 1	100 to 1000		
COCC1CCN(c2cc(C)cc(Nc3ncn(-c4ccccn4)n3)c2)CC1 [Compound 211, N-[3-[4-(methoxymethyl)-1-piperidyl]-5-methyl-phenyl]-1-(2-pyridyl)-1,2,4-triazol-3-amine]	10 to 100	100 to 1000		
Cc1cc(Nc2ncn(-c3ccccc3C#N)n2)cc(N2CCCC2)c1 [Compound 212, 2-[3-(3-methyl-5-pyrrolidin-1-yl-anilino)-1,2,4-triazol-1-yl]benzonitrile]	≤ 1	≤ 1		
CN1CCN(c2cc(F)cc(Nc3ncn(-c4ccccc4)n3)c2)CC1 [Compound 213, N-[3-fluoro-5-(4-methylpiperazin-1-yl)phenyl]-1-phenyl-1,2,4-triazol-3-amine]	100 to 1000	≤ 1		
Cc1cc(Nc2ncn(-c3ccccc3)n2)cc(N2CCN(C3CC3)C(=O)C2)c1 [Compound 214, l-cyclopropyl-4-[3-methyl-5-[(1-phenyl-1,2,4-triazol-3-yl)amino]phenyl]piperazin-2-one]	10 to 100	1000 to 10000		
Cc1cc(Nc2ncn(-c3cc(F)cc(F)c3)n2)cc(N2CCC(C3COC3)CC2)c1 [Compound 216, 1-(3,5-difluorophenyl)-N-[3-methyl-5-[4-(oxetan-3-yl)-1-piperidyl]phenyl]-1,2,4-triazol-3-amine]	1 to 10	10 to 100		
Cc1cc(Nc2ncn(-c3cncc(Cl)c3)n2)cc(N2CCN(C3COC3)CC2)c1 [Compound 217, 1-(5-chloro-3-pyridyl)-N-[3-methyl-5-[4-(oxetan-3-yl)piperazin-1-yl]phenyl]-1,2,4-triazol-3-amine]	10 to 100	10 to 100		
CCc1cc(Nc2ncn(-c3cccc(C(F)(F)F)c3)n2)cc(N2CCN(C3COC3)CC2)c1 [Compound 218, N-[3-ethyl-5-[4-(oxetan-3-yl)piperazin-1-yl]phenyl]-1-[3-(trifluoromethyl)phenyl]-1,2,4-triazol-3-amine]	100 to 1000	≤ 1		
Cc1cc(Nc2ncn(-c3ccccc3)n2)cc(N2C[C@@H]3C[C@H]2CN3C2COC2)c1 [Compound 219, N-[3-methyl-5-[(1S,4S)-2-(oxetan-3-yl)-2,5-diazabicyclo[2.2.1]heptan-5-yl]phenyl]-1-phenyl-1,2,4-triazol-3-amine]	100 to 1000	1 to 10		
Cc1cc(Nc2ncn(-c3cc(F)cc(Cl)c3)n2)cc(N2CCN(C)CC2)c1 [Compound 220, 1-(3-chloro-5-fluoro-phenyl)-N-[3-methyl-5-(4-methylpiperazin-1-yl)phenyl]-1,2,4-triazol-3-amine]	10 to 100	≤ 1		
Cc1cc(Nc2ncn(-c3cc(F)cc(F)c3)n2)cc(C2CCN(C3COC3)CC2)c1 [Compound 221, 1-(3,5-difluorophenyl)-N-[3-methyl-5-[1-(oxetan-3-yl)-4-piperidyl]phenyl]-1,2,4-triazol-3-amine]	1 to 10	100 to 1000		
c1ccc(-n2cnc(Nc3cc(C4CC4)nc(N4CCOCC4)c3)n2)cc1 [Compound 222, 2-cyclopropyl-6-morpholino-N-(1-phenyl-1,2,4-triazol-3-yl)pyridin-4-amine]	100 to 1000	1 to 10		
Cc1cc(Nc2ncn(-c3ccccc3F)n2)cc(N2CCN(C3COC3)CC2)c1 [Compound 223, 1-(2-fluorophenyl)-N-[3-methyl-5-[4-(oxetan-3-yl)piperazin-1-yl]phenyl]-1,2,4-triazol-3-amine]	10 to 100	10 to 100		
Cc1cc(Nc2ncn(-c3ccncc3)n2)cc(N2CCN(C3COC3)CC2)c1 [Compound 224, N-[3-methyl-5-[4-(oxetan-3-yl)piperazin-1-yl]phenyl]-1-(4-pyridyl)-1,2,4-triazol-3-amine]	100 to 1000	10 to 100		
Fc1ccccc1-n1cnc(Nc2cc(C3CC3)cc(N3CCN(C4COC4)CC3)c2)n1 [Compound 225, N-[3-cyclopropyl-5-[4-(oxetan-3-yl)piperazin-1-yl]phenyl]-1-(2-fluorophenyl)-1,2,4-triazol-3-amine]	100 to 1000	100 to 1000		
CN1CCN(c2cc(Nc3ncn(-c4ccnc(F)c4)n3)cc(C(F)(F)F)c2)CC1 [Compound 226, 1-(2-fluoro-4-pyridyl)-N-[3-(4-methylpiperazin-1-yl)-5-(trifluoromethyl)phenyl]-1,2,4-triazol-3-amine]	100 to 1000	≤ 1		
Cc1cc(Nc2ncn(-c3ccccc3)n2)cc(N2CCN3C(=O)OCC3C2)c1 (stereo not drawn) [Compound 227, 7-[3-methyl-5-[(1-phenyl-1,2,4-triazol-3-yl)amino]phenyl]-5,6,8,8a-tetrahydro-1H-oxazolo[3,4-a]pyrazin-3-one]	100 to 1000	10 to 100		
Cc1cc(Nc2ncn(-c3cc(F)cc(F)c3)n2)cc(N2CCN(C3CS(=O)(=O)C3)CC2)c1 [Compound 228, 1-(3,5-difluorophenyl)-N-[3-[4-(1,1-dioxothietan-3-yl)piperazin-1-yl]-5-methyl-phenyl]-1,2,4-triazol-3-amine]	10 to 100	100 to 1000		
Cc1cc(Nc2ncn(-c3cc(F)cc(F)c3)n2)cc(C2CN(C3COC3)C2)c1 [Compound 229, 1-(3,5-difluorophenyl)-N-[3-methyl-5-[1-(oxetan-3-yl)azetidin-3-yl]phenyl]-1,2,4-triazol-3-amine]	100 to 1000	100 to 1000		
Fc1cc(Nc2ncn(-c3cccc(F)c3)n2)cc(C2CCN(C3COC3)C2)c1 (stereo not drawn) [Compound 230, N-[3-fluoro-5-[1-(oxetan-3-yl)pyrrolidin-3-yl]phenyl]-1-(3-fluorophenyl)-1,2,4-triazol-3-amine]	1000 to 10000	≤ 1		

Source: US10766869B2, “Triazoles for the treatment of demyelinating dieases” (Vertex Pharmaceuticals Incorporated, priority 2015, dated 2020)
